Reference: patent publication US20180021417A1, “ADJUVANT COMPOSITIONS COMPRISING A NON-IONIC ISOTONICITY AGENT” (GLAXOSMITHKLINE BIOLOGICALS, SA, priority 2009, published 2018)

System: chicken Red Blood cells (RBC)
Experiment: QS21 lytic activity, haemolysis assay (limit test)
Assay type: cell-based
Settings: example QS21 curve, 150 mM sodium chloride buffer; OD 0.12
Description: QS21 is known to lyse red blood cells (RBC).
QS21 lytic activity was measured by a haemolysis assay using chicken Red Blood cells (RBC). RBC were centrifuged at 550 g at 4° C. Supernatant was discarded. The pellet was carefully resuspended in PBS buffer to reach the initial volume and the same operation was repeated until supernatant was no longer red (generally 3 times). The pellet was stored at 4° C. for 3 to 4 days maximum if not used directly (and washed again the day it is used) or was diluted around 10 times in buffer if used the same day.
A QS21 dose range curve was prepared in ASA buffer (in salt or in sorbitol buffer following the ASA sample tested) extemporaneously and the adjuvant samples (containing a 50 μg or 90 μg equivalent of QS21 meaning the equivalent of 500 μl or 900 μl ASA) were prepared. Final volume was adjusted to 900 μl in standards and samples with adequate buffer (containing or not sorbitol as a function of the buffer of the sample tested). Due to its opalescence, ASA interferes in optical density (OD). […] Optical density at 540 nm was measured after centrifugation. […]
1. Limit of detection (LOD) was defined as the lowest concentration of QS21 leading to an OD: • Higher than the base level (OD>0.1) • Around three times higher than OD's buffer (the “o μg” QS21) • In the ascendant part of the curve • Determined for each test. […]

With QS21 as the substance, how does the “Limit of Detection (lowest QS21 amount giving lytic OD)” value read?
Its value is 0.9 µg.
